We go through one molecule from patent publication US20260226077A1, “TYPE II TOPOISOMERASE INHIBITORS AND METHODS OF MAKING AND USING THEREOF” (Ohio State Innovation Foundation, priority 2023, published 2026).

For orientation: Vd means the apparent volume that relates the amount in the body to the concentration in plasma or blood. A lower Vd goes with confinement near the circulation. As usually defined, the Papp A→B is how fast a substance crosses the layer from the apical side. The low end stands for poor permeation, the high end for ready permeation.

The nature of one data set: in vitro. As to conditions: mouse, hepatocytes.
The next data set relates to Burkholderia mallei. In words: microbe, parasite or virus in culture. The class given is cell-based.
The nature of another data set: in vivo. As to conditions: mouse, Mouse Vdss (L).
Data set [1] can be described thus: Permeability: CACO-2 A->B. Format: in vitro ADME. As to conditions: human, Caco-2.
Data set [2] is described as follows: Mouse microsomal stability. As to conditions: microsomes, read-out: Mouse microsom. t1/2. Format: in vitro ADME.
Another data set concerns Mycobacterium abscessus. In words: MIC50/90 against Mycobacterium abscessus. The class given is cell-based. As to conditions: Mycobacteroides abscessus; n = 10.
The test system of data set [3] is Mycobacterium chimaera intracellulare group. In words: MIC50 against Mycobacterium chimaera intracellulare group. Format: cell-based. As to conditions: n = 6.
The subject of data set [4] is Staphylococcus epidermidis. Put plainly: MIC50/90 against Staphylococcus epidermidis. Format: cell-based. As to conditions: n = 10.
A further data set relates to Haemophilus influenzae. In words: MIC50/90 against Haemophilus influenzae. The class given is cell-based. As to conditions: n = 10.
A further data set deals with Streptococcus agalactiae. Put plainly: MIC50/90 against Streptococcus agalactiae. The class given is cell-based.
Data set [5] deals with CYP 1A, 2B6, 2C8, 2C9, 2C19, 2D6, 3A. Put plainly: CYP inhibition at 10 μM. Format: in vitro ADME.
Where [6] appears, read: 284: as free base in immunocompetent mice, 147: no footnote.
[7] abbreviates: as mesylate salt in neutropenic mice.

SMILES strings stand for the structures. Converted amounts (≈) assume the structure as drawn. Marks after values point to notes of the source that are not given here.

Regarding `COc1ccc2ncc(F)c(C[C@H](O)[C@H]3OC[C@H](NCc4cnc5c(n4)NC(=O)CO5)CO3)c2n1` [Compound 284, 6-(((2-((S)-2-(3-fluoro-6-methoxy-1,5-naphthyridin-4-yl)-1-hydroxyethyl)-trans-1,3-dioxan-5-yl)amino)methyl)-2H-pyrazino[2,3-b][1,4]oxazin-3(4H)-one], the figures for the half-life (in “in vitro”; in [2]) were greater than 4 h and greater than 2 h, respectively. For the same molecule, the MIC90 is greater than 64 µg/mL in the data set on Burkholderia mallei (Burkholderia mallei, read-out: Burkholderia mallei MIC90 (μg/mL)); greater than 64 µg/mL in the data set with Mycobacterium abscessus; 0.25 µg/mL (≈ 0.514 µM) in data set [4]; 8 µg/mL (≈ 16.4 µM) against Haemophilus influenzae. In the data set with Burkholderia mallei (n = 10), the “Burkholderia mallei MIC50” value is 16 µg/mL. In addition, the entries for the “Mouse PK AUClast, unbound (μg*h/mL) after 50 mg/kg oral dose” value in the data set “Mouse pharmacokinetics” (setting [6]) and in the data set “Mouse pharmacokinetics” (setting [7]) were 5** μg*h/mL and 12*** μg*h/mL, respectively. Besides, the “Mouse Clunbound (mL/min/kg)” value in the data set “Mouse pharmacokinetics” (setting [6]) is 15*** mL/min/kg; in “Mouse pharmacokinetics” (setting [7]), 45**** mL/min/kg. For the same molecule, the Vd in the data set “in vivo” worked out at 0.36 L. The molecule also showed an apical-to-basolateral permeability (Papp A→B) in data set [1] of 1.5 ×10⁻⁶ cm/s. Besides, the MIC50 was greater than 64 µg/mL in the data set with Mycobacterium abscessus; 64 µg/mL (≈ 132 µM) in data set [3]; 0.12 µg/mL (≈ 0.247 µM) in data set [4]; 4 µg/mL (≈ 8.22 µM) with Haemophilus influenzae; 4 µg/mL (≈ 8.22 µM) in the data set on Streptococcus agalactiae (Streptococcus agalactiae, n = 5 (147), n = 10 (others)). Further, the “Streptococcus agalactiae MIC90” value in the data set on Streptococcus agalactiae (n = 10) was 16 µg/mL. The “CYP inhibition at 10 μM (1A, 2B6, 2C8, 2C9, 2C19, 2D6, 3A)” value in data set [5] was “No issues”.
